The subject of experiment [1] is MEFs infected with the four factors (Oct4, Sox2, Klf4 and c-Myc). The class given is cell-based, mouse. On the procedure:
FIG. 1(a) MEFs infected with the four factors (Oct4, Sox2, Klf4 and c-Myc) were treated with various chemicals for a week, the percentage of Oct4-GFP positive cells induced was measured through FACS analysis, and compared to infected MEFs without treatment or treated with DMSO (the solvent for Dexamethasone, SAHA and TSA). The chemicals used were: 5′-azaC (2 μM), dexamethasone (dex, 1 μM), 5′-azaC (2 μM) together with dexamethasone (1 μM), VPA (2 mM), SAHA (5 μM) and TSA (20 nM). n=4 for each treatment. For all figures in this study, standard deviations are indicated by error bars, and P values by two-tailed student t-test less than 0.05, 0.01 and 0.001 are indicated by one, two and three asterisks respectively.
To quantitate reprogramming efficiency, we established an assay based on Fluorescence-Activated Cell Sorting (FACS) analysis using an Oct4-GFP transgenic reporter, where the expression of the green fluorescent protein (GFP) is controlled by the promoter and enhancers of Oct4, a pluripotent marker gene^14.
MEFs were derived from e13.5 embryos hemizygous for the Oct4-GFP transgenic allele. Embryos were sexed by inspecting gonads for the pattern of Oct4-GFP expression. Gonads and internal organs were removed before processing the embryos for MEF isolation. To generate iPS cells that can be identified in mouse chimeras after blastocyst injection, we derived MEFs from e13.5 embryos that are hemizygous for Oct4-GFP and heterozygous for the Rosa26-lacZ reporter allele. MEFs were grown in DMEM supplemented with 10% FBS, L-glutamine, penicillin/streptoMycin, nonessential amino acids, and sodium pyruvate. MEFs in early passages (up to passage 5) were used for generation of iPS cells.
Moloney-based retroviral vector (pMXs) containing the murine complementary DNAs of Oct4, Sox2, c-Myc, and Klf4 were obtained from Addgene^1. These plasmids were co-transfected into 293T cells with packaging vectors (pUMVC and pCMV-VSVG), and viral supernatants were collected 48 hours post-transfection to infect MEFs. Two to three rounds of infection were performed during a 48 hour period. The first day after viral supernatants were removed was defined as 0 day post-infection. Infected MEFs were subsequently cultured in mouse ES cell media (Knockout DMEM supplemented with 15% Hyclone FBS, L-glutamine, penicillin/streptoMycin, nonessential amino acids, β-mercaptoethanol, and with 1000 U/ml LIF), and treated with small molecules or growth factors for a week starting from 1 or 2 days post-infection. […] All conditions were tested in quadruplicates.

The test system is the same in experiment [2]. In words: cells. The class given is cell-based, mouse. The conditions noted are these: 4-factor infected MEFs.

Where two headings read alike, the source gives them in different places.

For the molecule `CC(=O)O/N=C1/C(=C2/C(=O)Nc3cc(Br)ccc32)Nc2ccccc21` [BIO-Acetoxime], the “effect on reprogramming efficiency” value in experiment [1] (2 μM, 4-factor infected MEFs) is listed as “no significant effect”.
On to `COc1cccc(-c2cc(=O)c3ccccc3o2)c1N` [PD98059], for which the “effect on reprogramming efficiency” value in experiment [2] (40 μM) is “no significant effects”.
For the molecule `O=C(CCCCCCC(=O)Nc1ccccc1)NO` [SAHA, suberoylanilide hydroxamic acid], in experiment [1] (5 μM, 4-factor infected MEFs), the “improvement over the control DMSO treatment” value worked out at 10 fold and the “percentage of GFP positive cells” value was “approximately 0.198% (±0.102%)”.
Regarding `CC(/C=C/C(=O)NO)=C\[C@@H](C)C(=O)c1ccc(N(C)C)cc1` [TSA, trichostatin A], in experiment [1] (20 nM, 4-factor infected MEFs), the “percentage of GFP positive cells” value is given as “approximately 1.535% (±0.618%)”.
Regarding `N#CC(=C(/N)Sc1ccccc1N)/C(C#N)=C(\N)Sc1ccccc1N` [U0126], the “effect on reprogramming efficiency” value in experiment [1] is on record as “no significant effects”.
Take `C[C@@H]1C[C@H]2[C@@H]3CCC4=CC(=O)C=C[C@]4(C)[C@@]3(F)[C@@H](O)C[C@]2(C)[C@@]1(O)C(=O)CO` [dexamethasone]: the “improvement of the effect of 5′-azaC when used in combination” value in experiment [1] is recorded as 2.6 fold. Further, the “effect on reprogramming efficiency” value in experiment [1] (1 μM alone, 4-factor infected MEFs) was “no significant effect”.
As to Wnt3a, the “effect on reprogramming efficiency” value in experiment [2] (100 ng/ml) is recorded as “no significant effect”.

B1: BMP4: recombinant human Bmp4 from Roche (protein, UniProt P12644 293-408, looked up)
Bone morphogenetic protein 4: SPKHHSQRARKKNKNCRRHSLYVDFSDVGWNDWIVAPPGYQAFYCHGDCPFPLADHLNSTNHAIVQTLVNSVNSSIPKACCVPTELSAISMLYLDEYDKVVLKNYQEMVVEGCGCR
In the case of B1, in experiment [2] (100 ng/ml), the “effect on reprogramming efficiency” value was “had no effect”.

The values are drawn from patent publication US20110014164A1, “EFFICIENT INDUCTION OF PLURIPOTENT STEM CELLS USING SMALL MOLECULE COMPOUNDS” (PRESIDENT AND FELLOWS OF HARVARD COLLEGE, priority 2008, published 2011).
